Laboratory results: patent US10632127B2, “Targeted notch pathway inhibitors” (Hoffmann-La Roche Inc., priority 2015, dated 2020)

System: γ-GT
Experiment: Histoenzymography of γ-GT activity in ex-vivo mouse kidneys
Format: biochemical
Conditions: ex-vivo kidneys of non-diseased BALB/c mice
Protocol: FIG. 2B. Selective inhibition of the enzymatic activities of APA and yGT by the γ-secretase analogues determined by histoenzymography in the kidneys of non diseased BALB/c mice.
Evaluation by histoenzymography of APA and γ-GT enzymatic activities on frozen tissue was performed as described in Juillerat-Jeanneret, L. et al., Lab. Invest. 2000, 80, 973-980. Briefly, OCT-embedded frozen kidneys were cut in 7 μm sections in a cryostat, fixed for 5 min in cold (−20° C.) acetone, air dried at RT and rehydrated for 5 min in 0.9% NaCl. Naphthylamide substrates were obtained from commercial sources (α-Glu-4-methoxy-β-naphtylamide (APA) from Bachem; and γ-Glu-4-methoxy-β-naphtylamide (γ-GT) from Serva). Substrates (1 mg) were dissolved in 1 ml DMF and 2 mg Fast Blue B (Sigma-Aldrich) was dissolved in 2 ml 0.2M cacodylate buffer pH 7.4 containing 700 mg/l CaCl2; then both solutions were slowly mixed immediately before use and the pH adjusted to 6.5-7.0. […] The slides were washed in distilled water, counter-stained with hematoxylin (Mayer) for 1 min, rinsed under tap water, then with Scott solution for 1 min, rinsed under tap water, mounted in Aquamount (Immu-mount, Thermo Shandon Pittsburgh, Pa., USA) and analyzed with a Nikon Eclipse E800 microscope and digital DXM1200 camera using ACT-1 software. […]

CC(=O)N[C@@H](CCC(=O)NCCNC(=O)OCCN1C(=O)[C@@H](NC(=O)[C@@](C)(O)C(=O)NCC(F)(F)C(F)(F)F)[C@@H](C)Oc2ccc(F)cc21)C(=O)O [Compound 13a, (S)-2-acetamido-5-(2-((2-((2R,3S)-7-fluoro-3-((S)-2-hydroxy-2-methyl-3-oxo-3-(2,2,3,3,3-pentafluoropropylamino)propanamido)-2-methyl-4-oxo-3,4-dihydrobenzo[b][1,4]oxazepin-5(2H)-yl)ethoxy)carbonylamino)ethylamino)-5-oxopentanoic acid]
inhibition of γ-GT-like activity (hydrolysis of γ-Glu-naphthylamide): able to inhibit γ-GT-like activity
